Reference: ChEMBL document CHEMBL2074024, “Reversal of P-glycoprotein-mediated multidrug resistance by diallyl sulfide in K562 leukemic cells and in mouse liver” (Carcinogenesis, 2004)

Experiments:
[1] = molecular target: T1, ATP-dependent translocase ABCB1 (Homo sapiens, UniProt P08183); test: TP_TRANSPORTER: drug resistance (vinblastine) in K562/R10 cells; assay type: functional, cell-based
[2] = molecular target: T1, ATP-dependent translocase ABCB1; test: TP_TRANSPORTER: increase in Doxorubicin intracellular accumulation (Doxorubicin: […]) in K562/R10 cells; assay type: functional, cell-based

T1 sequence (P08183 whole entry): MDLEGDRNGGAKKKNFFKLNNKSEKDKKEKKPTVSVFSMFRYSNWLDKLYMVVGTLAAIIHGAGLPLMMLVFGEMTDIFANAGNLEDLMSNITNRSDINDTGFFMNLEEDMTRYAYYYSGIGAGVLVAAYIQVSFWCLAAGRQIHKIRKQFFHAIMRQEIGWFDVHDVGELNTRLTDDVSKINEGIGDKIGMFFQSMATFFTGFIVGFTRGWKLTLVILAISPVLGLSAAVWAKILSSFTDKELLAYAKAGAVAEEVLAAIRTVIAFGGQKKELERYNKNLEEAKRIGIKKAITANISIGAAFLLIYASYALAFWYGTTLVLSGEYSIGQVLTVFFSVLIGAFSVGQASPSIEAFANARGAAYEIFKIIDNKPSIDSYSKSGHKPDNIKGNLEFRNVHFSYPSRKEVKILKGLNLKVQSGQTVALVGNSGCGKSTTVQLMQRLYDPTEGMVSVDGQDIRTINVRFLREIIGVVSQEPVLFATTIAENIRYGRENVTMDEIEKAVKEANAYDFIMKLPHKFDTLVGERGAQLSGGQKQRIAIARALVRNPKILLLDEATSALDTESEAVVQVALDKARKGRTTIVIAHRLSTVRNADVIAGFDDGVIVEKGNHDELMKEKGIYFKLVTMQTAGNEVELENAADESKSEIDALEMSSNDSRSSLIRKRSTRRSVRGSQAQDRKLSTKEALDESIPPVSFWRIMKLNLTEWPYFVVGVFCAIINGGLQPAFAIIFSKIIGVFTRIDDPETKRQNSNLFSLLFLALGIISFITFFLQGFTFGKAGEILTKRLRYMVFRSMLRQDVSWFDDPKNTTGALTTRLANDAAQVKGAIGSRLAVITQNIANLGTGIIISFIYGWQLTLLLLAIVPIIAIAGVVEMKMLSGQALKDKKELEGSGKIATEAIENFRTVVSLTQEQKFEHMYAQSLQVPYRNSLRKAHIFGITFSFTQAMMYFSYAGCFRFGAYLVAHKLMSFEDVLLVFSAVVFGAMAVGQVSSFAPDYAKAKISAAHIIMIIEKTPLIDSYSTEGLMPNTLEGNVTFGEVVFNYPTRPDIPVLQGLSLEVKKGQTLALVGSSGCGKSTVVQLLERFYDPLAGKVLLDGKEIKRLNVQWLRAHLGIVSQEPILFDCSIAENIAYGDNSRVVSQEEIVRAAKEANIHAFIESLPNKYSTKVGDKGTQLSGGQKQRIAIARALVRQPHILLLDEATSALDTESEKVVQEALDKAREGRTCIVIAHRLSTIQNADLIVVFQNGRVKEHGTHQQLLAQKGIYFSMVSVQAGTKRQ

- Activity [1]: inhibitor [+]
- Activity [2]: inhibitor [+]
SMILES: C=CCSCC=C [DIALLYL SULFIDE]
